From ChEMBL document CHEMBL1201862, “PubChem BioAssay data set” (2004)
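Values below derive from 48-hour exposures of cells grown in 96-well plates, with endpoints linearly interpolated between the two concentrations bracketing the appropriate inhibition level. Abbreviation: GI50, concentration required for 50% inhibition of growth.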 The source made the active and inactive calls. Cut-off read from the data, not from the text of the source: active = GI50 up to about 1.1 µM and inactive = higher.

How the values were obtained:
Test in all cases: growth of human tumour cells (NCI), 48 h
BT-549 = system: BT-549
SR = system: SR
PC-3 = system: PC-3
MCF7 = system: MCF7
HL-60 = system: HL-60
SNB-19 = system: SNB-19
UACC-62 = system: UACC-62
MDA-N = system: MDA-N
T47D = system: T47D
SNB-75 = system: SNB-75
SK-MEL-28 = system: SK-MEL-28
SW-620 = system: SW-620
Malme-3M = system: Malme-3M
HCT-116 = system: HCT-116
CAKI-1 = system: CAKI-1
786-0 = system: 786-0
U-251 = system: U-251
SN12C = system: SN12C
A549 = system: A549
RPMI-8226 = system: RPMI-8226
UO-31 = system: UO-31
SK-MEL-2 = system: SK-MEL-2
HT-29 = system: HT-29
MDA-MB-231 = system: MDA-MB-231
MOLT-4 = system: MOLT-4
TK-10 = system: TK-10
CCRF-CEM = system: CCRF-CEM
OVCAR-4 = system: OVCAR-4
HCT-15 = system: HCT-15
OVCAR-8 = system: OVCAR-8
SF-539 = system: SF-539
NCI-H226 = system: NCI-H226
OVCAR-3 = system: OVCAR-3
MDA-MB-435 = system: MDA-MB-435
RXF 393 = system: RXF 393
NCI/ADR-RES = system: NCI/ADR-RES
A498 = system: A498
K562 = system: K562
LOX IMVI = system: LOX IMVI
SK-OV-3 = system: SK-OV-3
M14 = system: M14
DU-145 = system: DU-145
KM12 = system: KM12
UACC-257 = system: UACC-257
IGROV-1 = system: IGROV-1
SF-268 = system: SF-268
COLO 205 = system: COLO 205
Hs-578T = system: Hs-578T
HOP-62 = system: HOP-62
NCI-H460 = system: NCI-H460
SK-MEL-5 = system: SK-MEL-5
NCI-H23 = system: NCI-H23
SF-295 = system: SF-295
ACHN = system: ACHN
EKVX = system: EKVX
NCI-H522 = system: NCI-H522
OVCAR-5 = system: OVCAR-5
HCC 2998 = system: HCC 2998
HOP-92 = system: HOP-92

Measured: GI50

COC(=O)c1c(O)ccc2c1c1c(n2Cc2ccccc2OC)C(=O)c2ccccc2C1
inactive: BT-549 > 100 µM | SR 77.3 µM | PC-3 24 µM | MCF7 23.7 µM | HL-60 > 100 µM | SNB-19 > 100 µM | UACC-62 76.4 µM | MDA-N 77.1 µM | T47D 81.3 µM | SNB-75 61.9 µM | SK-MEL-28 > 100 µM | SW-620 81.1 µM | Malme-3M > 100 µM | HCT-116 27.8 µM | CAKI-1 65.3 µM | 786-0 78.9 µM | U-251 63.4 µM | SN12C 22.8 µM | A549 49.1 µM | RPMI-8226 22.4 µM | UO-31 44.5 µM | SK-MEL-2 87.5 µM | HT-29 36.5 µM | MDA-MB-231 44.1 µM | MOLT-4 48.3 µM | TK-10 > 100 µM | CCRF-CEM 24.6 µM | OVCAR-4 29.7 µM | OVCAR-8 91.2 µM | SF-539 63.8 µM | NCI-H226 70.3 µM | OVCAR-3 88.7 µM | MDA-MB-435 45.3 µM | RXF 393 26.5 µM | NCI/ADR-RES 29.3 µM | A498 > 100 µM | K562 70.5 µM | LOX IMVI 47.2 µM | SK-OV-3 78.5 µM | M14 46.2 µM | DU-145 > 100 µM | KM12 93.5 µM | UACC-257 34.7 µM | IGROV-1 63.1 µM | SF-268 40.5 µM | COLO 205 15.5 µM | Hs-578T > 100 µM | HOP-62 75.5 µM | NCI-H460 29 µM | SK-MEL-5 55.6 µM | NCI-H23 74.8 µM
63.4 µM: HCT-15

O=C1OC2C=CCC1C2 (stereo unspecified)
inactive: BT-549 > 100 µM | SF-295 > 100 µM | SR > 100 µM | PC-3 > 100 µM | MCF7 > 100 µM | HL-60 > 100 µM | SNB-19 > 100 µM | UACC-62 > 100 µM | MDA-N > 100 µM | T47D > 100 µM | ACHN > 100 µM | SNB-75 > 100 µM | SK-MEL-28 > 100 µM | SW-620 > 100 µM | Malme-3M > 100 µM | HCT-116 > 100 µM | CAKI-1 > 100 µM | 786-0 > 100 µM | U-251 > 100 µM | SN12C > 100 µM | A549 > 100 µM | RPMI-8226 > 100 µM | UO-31 > 100 µM | SK-MEL-2 > 100 µM | HT-29 > 100 µM | MDA-MB-231 > 100 µM | MOLT-4 > 100 µM | TK-10 > 100 µM | CCRF-CEM > 100 µM | OVCAR-8 > 100 µM | SF-539 > 100 µM | NCI-H226 > 100 µM | EKVX > 100 µM | OVCAR-3 > 100 µM | MDA-MB-435 > 100 µM | NCI/ADR-RES > 100 µM | A498 > 100 µM | K562 > 100 µM | LOX IMVI > 100 µM | SK-OV-3 > 100 µM | M14 > 100 µM | DU-145 > 100 µM | NCI-H522 > 100 µM | KM12 > 100 µM | UACC-257 > 100 µM | IGROV-1 > 100 µM | SF-268 > 100 µM | COLO 205 > 100 µM | OVCAR-5 > 100 µM | Hs-578T > 100 µM | HOP-62 > 100 µM | NCI-H460 > 100 µM | SK-MEL-5 > 100 µM | HCC 2998 > 100 µM | NCI-H23 > 100 µM
> 100 µM: HCT-15

CCOC(=O)C(C(=S)SC)c1nn2c(=O)cc(C)nc2s1 (stereo unspecified)
inactive: BT-549 16.9 µM | SF-295 20.3 µM | SR 15.7 µM | PC-3 20.9 µM | MCF7 17.1 µM | HL-60 18.1 µM | SNB-19 21.3 µM | UACC-62 20.4 µM | MDA-N 15.8 µM | T47D 19 µM | ACHN 20.2 µM | SNB-75 20.7 µM | SK-MEL-28 18.8 µM | SW-620 20.3 µM | Malme-3M 16.4 µM | HCT-116 18.6 µM | CAKI-1 19.9 µM | 786-0 20.3 µM | U-251 16 µM | SN12C 16.2 µM | A549 19.5 µM | RPMI-8226 19.6 µM | UO-31 23 µM | SK-MEL-2 20.8 µM | HT-29 21.5 µM | MDA-MB-231 19.5 µM | MOLT-4 19.2 µM | TK-10 35.1 µM | CCRF-CEM 29.4 µM | OVCAR-4 23.7 µM | OVCAR-8 19.3 µM | SF-539 18.3 µM | NCI-H226 17.9 µM | EKVX 18.8 µM | OVCAR-3 20.2 µM | MDA-MB-435 18.2 µM | RXF 393 20.8 µM | NCI/ADR-RES 24.3 µM | HOP-92 21.7 µM | K562 18.2 µM | LOX IMVI 15.9 µM | SK-OV-3 22.9 µM | M14 15.6 µM | DU-145 17.9 µM | NCI-H522 21.1 µM | KM12 26.2 µM | UACC-257 21 µM | IGROV-1 19.6 µM | SF-268 17.7 µM | COLO 205 24.6 µM | OVCAR-5 20.8 µM | Hs-578T 22.1 µM | HOP-62 22.4 µM | NCI-H460 18.8 µM | SK-MEL-5 18.7 µM | HCC 2998 25.5 µM | NCI-H23 20.6 µM
20.3 µM: HCT-15
